Source: ChEMBL document CHEMBL1135540, “Identification of a pharmacophore for thrombopoietic activity of small, non-peptidyl molecules. 2. Rational design of naphtho[1,2-d]imidazole thrombopoietin mimics” (J Med Chem, 2002)

How the values were obtained:
[1] = (§1) Activation of luciferase expression in BAF-3/TPO-Rluc cell line.; type: functional, cell-based; conditions: Homo sapiens
UT7 [2] = assay: Efficacy in proliferation of the UT7/TPO-R cell line and the value is reported as %TPO; type: functional, Homo sapiens
[3] = Efficacy in activation of luciferase expression in BAF-3/TPO-Rluc cell line and the value is reported as %TPO; type: functional, Homo sapiens
[4] = Activation of luciferase expression in the proliferation of UT7/TPO-R cell line.; type: functional; conditions: Homo sapiens
UT7 [5] = assay: Effective concentration for proliferation of UT7/TPO-R cell line.; type: functional, cell-based; conditions: Homo sapiens
[6] = as §1; type: cell-based; conditions: Homo sapiens
[7] = Agonistic activity against proliferation of UT-7/TPO-R cell line; type: functional; conditions: Homo sapiens, UT7/TPO-R
[8] = Efficacy in activation of luciferase expression in UT-7/TPO-R cell line and the value is reported as % salicylaldehyde thio-semicarbazone-thrombopoietin (TPO); type: functional, Homo sapiens

Structure (SMILES) | EC50 [1] [nM] | TPO (UT7 [2]) [%] | TPO [3] [%] | further results
O=S(=O)(O)c1cc(O)c2c(ccc3[nH]c(-c4c(O)ccc5ccccc45)nc32)c1 | 26000 | <10 | 11 | 
Cc1ccc(-c2cccc(/C=N/N=C(\S)Nc3cccc(C(=O)O)c3)c2O)cc1C |  |  |  | EC50 [4]: 30 nM
Cc1ccc(-c2cccc(-c3nc4c(ccc5cc(S(=O)(=O)O)cc(O)c54)[nH]3)c2O)cc1C | 1200 | 70 | 36 | EC50 (UT7 [5]): 1000 nM
O=S(=O)(O)c1cc2[nH]c(-c3c(O)ccc4ccccc34)nc2c2c(O)cccc12 | 35000 | <10 | 52 | 
O=S(=O)(O)c1cc(O)c2c(ccc3[nH]c(-c4ccc5ccccc5c4O)nc32)c1 | 9700 | <10 | 27 | 
CC(C)(C)c1ccc(-c2cccc(-c3nc4c(ccc5cc(S(=O)(=O)O)cc(O)c54)[nH]3)c2)cc1 |  |  | 100 | EC50 [6]: 80 nM
Cc1ccc(-n2[nH]c(C)c(/N=N/c3c(O)cc(S(=O)(=O)O)c4ccccc34)c2=O)cc1C |  |  |  | EC50 [4]: 40 nM
O=S(=O)(O)c1cc2[nH]c(-c3ccc4ccccc4c3O)nc2c2c(O)cccc12 | 4800 | <10 | 28 | 
CC(C)(C)c1ccc(-c2cccc(-c3nc4c(ccc5cc(C(=O)O)cc(O)c54)[nH]3)c2)cc1 |  |  |  | EC50 [7]: 300 nM; TPO [8]: 60%
